Test results taken from ChEMBL document CHEMBL1158034, “Synthesis and cytotoxicity of racemic isodeoxypodophyllotoxin analogues with isoprene-derived side chains” (J Nat Prod, 2006).

Columns and labels:
Type in all cases: functional, cell-based
KB = assay: Cytotoxicity against human KB cells after 72 hrs by MTT assay
[1] = Cytotoxicity against human BEL-7404 cells after 72 hrs by MTT assay; details: BEL-7404, 72 h
A549 = assay: Cytotoxicity against human A549 cells after 72 hrs by MTT assay; details: A549, 72 h
HL-60 = assay: Cytotoxicity against human HL-60 cells after 72 hrs by MTT assay; details: HL-60, 72 h

COc1cc2c(cc1OC)[C@H](c1ccc(OC)c(OC/C=C(\C)CC/C=C(\C)CCC=C(C)C)c1)[C@H]1C(=O)OC[C@@H]1C2 (racemic)
IC50 (KB): 3.76 µM | IC50 [1]: 5.63 µM

COC(=O)[C@H]1[C@H](CO)Cc2cc(OC)c(OC)c(OC)c2[C@@H]1c1ccc(O)c(OC)c1 (racemic)
IC50 (A549): 14.5 µM

COc1cc2c(cc1OC)[C@H](c1ccc(OCc3ccccc3)c(OC)c1)[C@H]1C(=O)OC[C@@H]1C2 (racemic)
IC50 (KB): 2.65 µM | IC50 [1]: 14.8 µM

COC(=O)[C@H]1[C@H](CO)Cc2cc(OC)c(OC)c(OC)c2[C@@H]1c1ccc(OC/C=C(\C)CCC=C(C)C)c(OC)c1 (racemic)
IC50 (HL-60): 4.54 µM

COc1cc([C@@H]2c3cc4c(cc3[C@@H](O[C@@H]3O[C@@H]5CO[C@@H](C)O[C@H]5[C@H](O)[C@H]3O)[C@H]3COC(=O)[C@H]23)OCO4)cc(OC)c1O [ETOPOSIDE]
IC50 (HL-60): 10.5 µM
